Converted amounts (≈) assume the structure as drawn. Like-named read-outs stand apart in the source and are kept apart here. Blank lines part the entries; values can stand above or below the molecule they belong to.
How the values were obtained:
[1] = biological target: T1, NIS (Rattus norvegicus, UniProt Q63008); test: NIS-inhibition assay (iodide uptake, Sandell–Kolthoff reaction) on FRTL-5; assay type: cell-based; settings: mean ± SD, ≥ 3 independent experiments; 2 h exposure; SK reaction
T1 construct: the endogenously NIS-expressing rat FRTL-5 cell line; host or cells: FRTL-5 (CVCL_0265)
T1 sequence (Q63008 1-618): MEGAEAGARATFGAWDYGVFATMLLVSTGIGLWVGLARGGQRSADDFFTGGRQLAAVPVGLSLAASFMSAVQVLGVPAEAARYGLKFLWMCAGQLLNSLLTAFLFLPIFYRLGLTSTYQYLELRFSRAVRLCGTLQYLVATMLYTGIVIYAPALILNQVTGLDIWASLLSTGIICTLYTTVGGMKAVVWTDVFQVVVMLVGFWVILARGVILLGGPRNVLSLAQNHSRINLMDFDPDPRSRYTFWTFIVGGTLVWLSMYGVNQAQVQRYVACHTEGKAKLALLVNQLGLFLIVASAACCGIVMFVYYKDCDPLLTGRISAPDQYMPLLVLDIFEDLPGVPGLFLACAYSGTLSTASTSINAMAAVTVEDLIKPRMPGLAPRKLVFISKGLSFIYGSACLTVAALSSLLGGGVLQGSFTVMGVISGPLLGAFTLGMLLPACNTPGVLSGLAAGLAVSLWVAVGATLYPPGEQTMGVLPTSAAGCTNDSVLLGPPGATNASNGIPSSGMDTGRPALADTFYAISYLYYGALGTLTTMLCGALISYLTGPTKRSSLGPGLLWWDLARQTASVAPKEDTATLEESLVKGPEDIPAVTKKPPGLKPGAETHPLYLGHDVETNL

[2] = test system: FRTL-5 cells; test: Neutral red uptake viability assay, FRTL-5; settings: mean±SD, 2 h exposure
[3] = test system: HEK293T NIS C cells; test: Neutral red uptake viability assay, HEK293T NIS C; settings: mean±SD, 2 h exposure
[4] = biological target: T2, human NIS (Homo sapiens, UniProt Q92911); test: NIS-inhibition assay (iodide uptake, Sandell–Kolthoff reaction) on HEK293T NIS 02; assay type: cell-based; design: host or cells: HEK293T (lentiviral transduction, puromycin selection, GFP sorting; lines NIS 02 and NIS C); settings: mean ± SD, ≥ 3 independent experiments, 2 h exposure, SK reaction; for IC50: read-out: NIS IC50 HEK293T NIS 02
T2 sequence (Q92911 1-643): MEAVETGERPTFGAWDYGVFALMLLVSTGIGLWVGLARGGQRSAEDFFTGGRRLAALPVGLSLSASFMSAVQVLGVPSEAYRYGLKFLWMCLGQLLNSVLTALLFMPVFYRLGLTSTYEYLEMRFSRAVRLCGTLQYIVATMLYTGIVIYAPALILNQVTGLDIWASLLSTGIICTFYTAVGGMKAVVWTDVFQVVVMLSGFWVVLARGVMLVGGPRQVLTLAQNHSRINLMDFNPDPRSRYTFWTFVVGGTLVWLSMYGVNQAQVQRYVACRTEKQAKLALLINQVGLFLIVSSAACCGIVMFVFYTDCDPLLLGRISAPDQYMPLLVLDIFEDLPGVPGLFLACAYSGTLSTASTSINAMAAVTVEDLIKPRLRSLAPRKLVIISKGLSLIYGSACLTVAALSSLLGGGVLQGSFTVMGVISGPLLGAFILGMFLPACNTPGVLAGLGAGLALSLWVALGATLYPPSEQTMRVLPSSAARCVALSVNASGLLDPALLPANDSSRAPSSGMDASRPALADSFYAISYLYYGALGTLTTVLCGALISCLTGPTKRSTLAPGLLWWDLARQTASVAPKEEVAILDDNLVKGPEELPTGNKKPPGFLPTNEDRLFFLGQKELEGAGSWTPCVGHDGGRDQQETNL

[5] = biological target: T2, human NIS; test: NIS-inhibition assay (iodide uptake, Sandell–Kolthoff reaction) on HEK293T NIS C; assay type: cell-based; design: host or cells: HEK293T (lentiviral transduction, puromycin selection, GFP sorting; lines NIS 02 and NIS C); settings: mean ± SD, ≥ 3 independent experiments; 2 h exposure; SK reaction
[6] = design: method as in PubChem https://pubchem.ncbi.nlm.nih.gov/; settings: ref PubChem https://pubchem.ncbi.nlm.nih.gov/; cited from earlier work
[7] = ref PubChem https://pubchem.ncbi.nlm.nih.gov/; cited from earlier work
[8] = biological target: T2, human NIS; design: host or cells: HEK293T (lentiviral transduction, puromycin selection, GFP sorting; lines NIS 02 and NIS C); settings: hNIS-HEK293T-EPA, RAIU, cited from earlier work
[9] = design: method as in PubChem https://pubchem.ncbi.nlm.nih.gov/; settings: ref PubChem https://pubchem.ncbi.nlm.nih.gov/; cited from earlier work; remark: listed apart in the source
[10] = biological target: T2, human NIS; test: Biotransformation (BTS, rat S9)-augmented NIS-inhibition assay, HEK293T NIS02; settings: for IC20: three independent experiments; for effect of fully active BTS (W/S9, W/cof) on NIS inhibition versus control setups: two-way ANOVA, p < 0.05
[11] = read-out: NIS inhibition IC20 D S9, W/cof, 5 h preincubation with denatured S9 and cofactors
[12] = read-out: NIS inhibition IC20 W/O S9, W/cof, 5 h preincubation without S9 fraction, with all cofactors

Compound: CC1(C)S[C@@H]2[C@H](NC(=O)[C@H](N)c3ccccc3)C(=O)N2[C@H]1C(=O)O [AMP, Ampicillin, reference compound]
NIS IC50 FRTL-5 [1]: n.e and n.e./ n.e.
NR IC20 FRTL-5 [2]: n.e./ n.e.
NR IC20 HEK293T NISC [3]: n.e./ n.e.
NIS IC50 HEK293T NIS 02 [4]: n.e and n.e./ n.e.
NIS IC50 HEK293T NIS C [5]: n.e and n.e./ n.e.

Compound: O=C(c1ccc(O)cc1O)c1ccc(O)cc1O [BP2, 2,2′-4,4′-Tetrahydroxy Benzophenone]
NIS IC50 FRTL-5 [1]: n.e and n.e. / n.e.
Henry‘s law [6]: 3.6x10^-6 atm- m^3/mol
solubility in water [7]: 8821 µg/mL (≈ 35800 µM)
NR IC20 FRTL-5 [2]: n.e. / n.e.
NR IC20 HEK293T NISC [3]: n.e./ n.e.
NIS IC50 HEK293T NIS 02 [4]: n.e and n.e./ n.e.
NIS IC50 HEK293T NIS C [5]: n.e and n.e./ n.e.

NIS IC50 FRTL-5 [1]: n.e and n.e./ n.e.
NIS IC50 HEK293T NIS 02 [4]: n.e and n.e. / n.e.
NIS IC50 HEK293T NIS C [5]: n.e and n.e./ n.e.
Compound: NC(=O)N1c2ccccc2C=Cc2ccccc21 [CBZ, Carbamazepine, reference compound]
Henry‘s law [6]: 1.1x10^-10 atm- m^3/mol
solubility in water [7]: 18 µg/mL (≈ 76.2 µM)
NR IC20 HEK293T NISC [3]: n.e./ n.e.
Data from literature NIS IC50 ([8]; ref US-EPA, 2024): n.e.
Data from literature NIS IC50 ([8]; ref Wang et al., 2019): n.e.

Compound: CC1=C[C@H]2O[C@@H]3[C@H](O)C[C@](C)([C@@]2(CO)[C@H](O)C1=O)[C@]31CO1 [DON, Deoxynivalenol]
log Kow [9]: -0.71
Henry‘s law [6]: 2.0x10^-14 atm- m^3/mol
solubility in water [7]: 55000 µg/mL (≈ 186000 µM)

Compound: S=C1NCCN1 [ETU, Ethylene thiourea]
NIS IC50 FRTL-5 [1]: n.e and n.e./ n.e.
log Kow [9]: -0.66
Henry‘s law [6]: 1.4x10^-11 atm- m^3/mol
NR IC20 FRTL-5 [2]: n.e./ n.e.
NR IC20 HEK293T NISC [3]: n.e./ n.e.
NIS IC50 HEK293T NIS 02 [4]: n.e and n.e./ n.e.
NIS IC50 HEK293T NIS C [5]: n.e and n.e./ n.e.

NIS IC50 FRTL-5 [1]: n.e and n.e. / n.e.
NIS IC50 HEK293T NIS 02 [4]: n.e and n.e. / n.e.
NIS IC50 HEK293T NIS C [5]: n.e and n.e. / n.e.
Compound: CCC(Cc1c(I)cc(I)c(N)c1I)C(=O)O (stereo not shown) [IOP, Iopanoic acid, reference compound]
solubility in water [7]: 348.3 µg/mL (≈ 610 µM)
NR IC20 FRTL-5 [2]: n.e. / n.e.
NR IC20 HEK293T NISC [3]: n.e. / n.e.

Compound: COc1ccc(C(c2ccc(OC)cc2)C(Cl)(Cl)Cl)cc1 [MET, Methoxychlor, reference compound]
IC50 [1]: 218 ± 4.3 µM
log Kow [9]: 5.08
Henry‘s law [6]: 2.03x10^-7 atm- m^3/mol
solubility in water [7]: 0.04 µg/mL (≈ 0.116 µM)
NR IC20 FRTL-5 [2]: 218±4.3 / n.e.
NR IC20 HEK293T NISC [3]: n.e./ n.e.
IC20 [10, 11]: 20.7 ± 19.5 µM
IC20 [10, 12]: > 500 µM
effect of fully active BTS (W/S9, W/cof) on NIS inhibition versus control setups [10]: no biotransformation-related effect changes were detected
IC50 [4]: 11 ± 8.7 µM
NIS IC50 HEK293T NIS C [5]: n.e and n.e./ n.e.
IC20 ([8]; ref US-EPA, 2024, read-out: Data from literature NIS IC20): 12.6 µM
Data from literature NIS IC50 ([8]; ref Wang et al., 2018): n.e.

NIS IC50 FRTL-5 [1]: n.e and n.e. / n.e.
NIS IC50 HEK293T NIS 02 [4]: n.e and n.e. / n.e.
NIS IC50 HEK293T NIS C [5]: n.e and n.e. / n.e.
Compound: CCCc1cc(=O)[nH]c(=S)[nH]1 [PTU, 6-Propylthiouracil, reference compound]
Henry‘s law [6]: 1.1x10^-9 atm- m^3/mol
NR IC20 FRTL-5 [2]: n.e. / n.e.
NR IC20 HEK293T NISC [3]: n.e. / n.e.
Data from literature NIS IC50 ([8]; ref Buckalew et al., 2020): n.e.
Data from literature NIS IC50 ([8]; ref Hallinger et al., 2017): n.e.

Compound: Oc1cccc(O)c1 [RSC, Resorcinol]
IC50 [1]: 4710 ± 562 µM
log Kow [9]: 0.8
Henry‘s law [6]: 9.9x10^-11 atm- m^3/mol
NR IC20 FRTL-5 [2]: 4709.5 ±562 / n.e.
NR IC20 HEK293T NISC [3]: n.e./ n.e.
effect of fully active BTS (W/S9, W/cof) on NIS inhibition versus control setups [10]: no significant differences were observed
IC50 [4]: 4060 ± 2050 µM
NIS IC50 HEK293T NIS C [5]: n.e and n.e./ n.e.
Data from literature NIS IC50 ([8]; ref Wang et al., 2019): n.e.

NIS IC50 FRTL-5 [1]: n.e and n.e. / n.e.
NIS IC50 HEK293T NIS 02 [4]: n.e and n.e. / n.e.
NIS IC50 HEK293T NIS C [5]: n.e and n.e. / n.e.
Compound: O=C(O)c1ccccc1O [SA, Salicylic acid]
log Kow [9]: 2.26
NR IC20 FRTL-5 [2]: n.e. / n.e.
NR IC20 HEK293T NISC [3]: n.e. / n.e.

NIS IC50 FRTL-5 [1]: n.e and n.e. / n.e.
NIS IC50 HEK293T NIS 02 [4]: n.e and n.e. / n.e.
NIS IC50 HEK293T NIS C [5]: n.e and n.e. / n.e.
Compound: Cc1cc(NS(=O)(=O)c2ccc(N)cc2)no1 [SMX, Sulfamethoxazole, reference compound]

Compound: N[C@@H](Cc1cc(I)c(Oc2ccc(O)c(I)c2)c(I)c1)C(=O)O [T3, 3,3′,5-Triiodo-L-thyronine]
log Kow [9]: 0.93
NR IC20 FRTL-5 [2]: n.e. / n.e.
NR IC20 HEK293T NISC [3]: n.e. / n.e.

NIS IC50 FRTL-5 [1]: n.e and n.e. / n.e.
NIS IC50 HEK293T NIS 02 [4]: n.e and n.e. / n.e.
NIS IC50 HEK293T NIS C [5]: n.e and n.e. / n.e.
Compound: NC(Cc1cc(I)c(Oc2cc(I)c(O)c(I)c2)c(I)c1)C(=O)O [T4, 3,3′,5,5″-Tetraiodo-L-thyronine]
log Kow [9]: 0.16
solubility in water [7]: 0.162 µg/mL (≈ 0.209 µM)
NR IC20 FRTL-5 [2]: n.e. / n.e.
NR IC20 HEK293T NISC [3]: n.e. / n.e.

Compound: O=P(Oc1ccccc1)(Oc1ccccc1)Oc1ccccc1 [TPP, Triphenyl phosphate]
IC50 [1]: 92.6 ± 24.1 µM
log Kow [9]: 4.6
Henry‘s law [6]: 3.3x10^-6 atm- m^3/mol
NR IC20 FRTL-5 [2]: 92.6 ±24.1 / n.e.
NR IC20 HEK293T NISC [3]: n.e. / n.e.
IC20 [10, 11]: 9.97 ± 3.36 µM
IC20 ([10]; read-out: NIS inhibition IC20 SM, standard method without preincubation, run in parallel): 7.93 ± 4.47 µM
IC20 [10, 12]: 17.5 ± 7.2 µM
effect of fully active BTS (W/S9, W/cof) on NIS inhibition versus control setups [10]: no biotransformation-related effect changes were detected
IC50 [4]: 42.8 ± 18.9 µM
NIS IC50 HEK293T NIS C [5]: n.e and n.e. / n.e.
IC50 ([8]; read-out: Data from literature NIS IC50, ref US-EPA, 2024): 50 µM
